Experimental data reported in PubChem BioAssay AID179 (DTP/NCI, 2004).
Activity calls are given as the source filed them.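 Rule for the calls: active = compounds giving half or more protection of infected cells from virus-caused growth loss, again on retest; inactive = the rest.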 Where a SMILES comes first, the peptide text is derived from it. [ ]: non-standard residue; d: D form. The star is where a group is joined. Iva = CC[C](C)(N)C(=O)O; Boc = CC(C)(C)OC(=O)*; X8 = C1CCC(=NO*)C1

Tested on: CEM cells HIV-1 protection, formazan growth assay
Assay: NCI AIDS Antiviral Assay
Details: for IC50: measured here: growth of uninfected CEM cells
How it was run: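 Human CEM cells, uninfected and HIV-1-infected, received five drug concentrations, and growth was read by soluble formazan assay. Compounds giving at least 50% protection were retested; reproducible 100% protection defined confirmed active.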

SMILES | EC50 [µM] | IC50 [µM] | outcome
C/C(=N/NC(=S)Nc1cccc(C)c1)c1ccccn1 | > 0.2 | 0.0955 | –
Oc1ccc2ccc3c(c2c1)CN(Cc1ccccc1)CO3 | > 24.5 | > 24.5 | –
O=C(Cc1ccccc1)NN1C(=O)C(Cl)C1c1ccc(O)cc1 (stereo unspecified) | > 204 | 170 | –
CCOC(=O)/C(=C\c1ccc(F)cc1)C(C)=O | > 398 | 79.4 | –
S=c1n(-c2ccc(Cl)cc2)c2nc3ccccc3nc(/c2=N\Nc2ccccc2)n1-c1ccc(Br)cc1 | > 61.7 | 31.6 | –
Cc1nc(-c2ccccc2)c(C)n2c1nc1ccccc12 | > 200 | 28.8 | –
COc1ccc(C(CC(=O)c2ccc3c(c2)OCO3)c2c(O)c3ccccc3oc2=O)cc1OC (stereo unspecified) | > 200 | 75.9 | –
O=C1c2ccccc2-c2oc(=O)c3ccccc3c21 | > 40.7 | > 40.7 | –
c1ccc(N=C(N2CCCCC2)N(CCN2CCCCC2)c2ccccc2)cc1 | > 200 | 1.82 | –
COc1cccc(NC(=O)CSc2nnc(-c3ccc(NC(C)=O)cc3)o2)c1 | > 64.6 | > 64.6 | –
COC1(O)c2cccc(Cl)c2C(=O)N1C1(C(N)=O)CCCCC1 (stereo unspecified) | – | – | inactive
C=C1C(OC(=O)C(O)C(c2ccccc2)N(C)C)C[C@H](OC(C)=O)[C@]2(C)C1C(OC(C)=O)[C@@H]1CC(OC(C)=O)C(C)=C([C@@H](OC(C)=O)C2OC(C)=O)C1(C)C (stereo partly specified) | – | – | inactive
COc1ccccc1NC(=O)/C(=C\N1C(=O)CC(=O)NC1=S)C(C)=O | > 200 | > 200 | –
CCCC(N)S(=O)(=O)O (stereo unspecified) | > 200 | > 200 | –
O=C(O)c1ccccc1SSC(=S)N1CCOCC1 | > 0.02 | 0.000759 | –
NC1CC(=O)c2c1sc(Cl)c2Cl (stereo unspecified) | – | – | inactive
O=C(Nc1ccccc1)N(CCN(Cc1ccccc1)C(=O)Nc1ccccc1)CCN(Nc1ccccc1)C(=O)Nc1ccccc1 | > 200 | > 200 | –
COc1cc(Oc2nc3ccc(C(F)(F)F)cc3nc2-c2ccccc2)cc(OC)c1OC | > 93.3 | 57.5 | –
O=c1[nH]c(=O)c2nnoc2[nH]1 | > 200 | 75.9 | –
NC(=O)C1Cc2cc3c(cc21)OCO3 (stereo unspecified) | > 200 | > 200 | –
C=CC1(c2ccc(Br)cc2)OCCCO1 | > 200 | > 200 | –
C=C[C@@H]1C(CO)=CCC2[C@H]1CCC1C(C)(C)C(=O)CC[C@]21C (stereo partly specified) | > 200 | > 200 | –

SMILES | EC50 [µM] | IC50 [µM] | outcome
FC(F)(F)c1nc2cc(SSc3cc4nc(C(F)(F)F)[nH]c4cc3Cl)c(Cl)cc2[nH]1 | > 200 | 7.41 | –
CS(=O)(=O)CC(Cc1ccccc1)C(=O)O (stereo unspecified) | – | – | inactive
Cc1cccc(NC(=S)Nc2ccc([N+](=O)[O-])cc2)n1 | > 200 | > 200 | –
N/N=C(\N)c1ccc(NC(=O)c2ccc(C(=O)Nc3ccc(/C(N)=N/N)cc3)cc2)cc1 | > 200 | 93.3 | –
O=C1NCN(c2ccccc2)C12CCN(CC1COc3ccccc3O1)CC2 (stereo unspecified) | > 200 | > 200 | –
CCC(C)(NC(=O)C(C)NC(=O)OC(C)(C)C)C(=O)NC(C)C(=O)NC(C)(CC)C(=O)ON=C1CCCC1 (stereo unspecified) (Boc-A[Iva]A[Iva]-X8; configuration not given here) | > 200 | 83.2 | –
COc1ccc2c(C3(O)CCNCC3)c[nH]c2c1 | – | – | inactive
Brc1ccc(C2CC3(c4ccccc4)ON=C(c4ccccc4)N3c3ccccc3S2)cc1 (stereo unspecified) | > 200 | 174 | –
c1cc(N(CCn2cccn2)CCn2cccn2)cc(N(CCn2cccn2)CCn2cccn2)c1 | – | – | inactive
O=C(Cc1ccccc1)NC(C(=O)c1ccccc1)c1ccccc1 (stereo unspecified) | > 79.4 | > 79.4 | –
O=[N+]([O-])c1ccc(-c2ccc(C3=Nn4c(CNc5ccccc5Cl)nnc4SC3)o2)cc1 | > 11.2 | > 11.2 | –
O=Nc1sc(=S)n(N2CCCCC2)c1O | > 200 | 105 | –
CCOC(=O)/C(=C\c1ccc(C(F)(F)F)cc1)[Se]c1ccccc1 | > 18.2 | > 18.2 | –
N=C(N)SCCC(=O)CCSC(=N)N | > 85.1 | 63.1 | –
C[C@@H]1c2ccc3c(c2C2(O)C[C@H]4CCC1N2C4)CC1[C@H]3CC(=O)C2C[C@@H](O)CC[C@@]21C (stereo partly specified) | > 155 | > 155 | –
CC1(C)OC(=O)N(c2ccccc2)C12C=Cc1cc([N+](=O)[O-])cc([N+](=O)[O-])c1O2 (stereo unspecified) | > 200 | 117 | –
COC(=O)c1c(C(=O)OC)c(C(c2ccccc2)c2ccccc2)n(-c2ccccc2)c1Cl | > 200 | 64.6 | –
CCOC(=O)NNP(=O)(NNC(=O)OCC)c1ccccc1 | > 110 | > 110 | –
CC(C)C[C@H]1[C@@H](OCc2ccccc2)COS(=O)N1[C@H](C)c1ccccc1 (stereo partly specified) | > 200 | 9.55 | –
Clc1ccc(Cl)c(N=Nc2cc3c4c(c2)CCN4CCC3)c1 | > 100 | > 100 | –
C/C(=N\N)C(CN1CCCCC1)C(c1ccccc1)c1c(O)c2ccccc2oc1=O (stereo unspecified) | > 107 | 69.2 | –
O=S1(=O)C[C@@H](O)[C@H](O)CS1 | 16.2 | 166 | –

SMILES | EC50 [µM] | IC50 [µM] | outcome
O=S(CCCl)c1c2ccccc2nc2ccccc12 (stereo unspecified) | > 200 | 30.9 | –
CSc1n[nH]c(=O)c2nc[nH]c12 | > 245 | > 245 | –
CCOC(=O)c1ccc(NC(=O)Nc2ccc(Cl)cn2)cc1 | > 200 | > 200 | –
O=C1/C(=C/c2ccc(O)cc2)Oc2ccccc21 | > 200 | 151 | –
CC(C)OP(=O)(OC(C)C)c1nn(-c2ccc([N+](=O)[O-])cc2)c(=N)s1 | > 129 | 93.3 | –
COc1ccc(S(=O)(=O)Nc2ccccc2C(=O)O)cc1 | – | – | inactive
Brc1ccc2c(-c3csc(-c4c[nH]c5ccccc45)n3)c[nH]c2c1 | > 200 | 10.7 | –
CCC1CCC2CCCC(C)N12 (stereo unspecified) | > 1480 | > 1480 | –
O=C1C=CC(=O)N1n1c(-c2ccccc2)n[nH]c1=O | 95.5 | 955 | –
O=C(CCCC1Cc2ccccc2C1=O)c1ccccc1 (stereo unspecified) | > 200 | 91.2 | –
C=CCCCCCCCCCC(C(=O)O)C(=O)O | > 977 | 550 | –
CC(C)CC1NC(=O)C(CC(C)C)N(CO)C1=O (stereo unspecified) | > 200 | > 200 | –
CO[C@@]12CC(=O)/C(=C(O)\C=C\c3ccccc3)C(=O)[C@]1(O)Cc1ccccc1O2 | > 316 | 42.7 | –
COc1ccc2cc3n(c2c1)CCc1cc(OC)c(OC)cc1-3 | – | – | inactive
CN(C)Cc1cc(N=Nc2ccc(Cl)cc2)ccc1O | > 20 | 13.5 | –
O=C(CC(O)(C(F)(F)Cl)C(F)(F)Cl)CC(O)(C(F)(F)Cl)C(F)(F)Cl | – | – | inactive
CC(CCC(=O)O)(CCC(=O)O)[N+](=O)[O-] | > 1150 | > 1150 | –
O=C1c2ccccc2C(=O)c2nc3c(O)cccc3cc21 | > 19.1 | > 19.1 | –
C/C(=N\N=C(/[O-])c1ccccc1)c1cccc(/C(C)=N/N=C(\[O-])c2ccccc2)n1.O.[Ni+2] | > 100 | > 100 | –
CCC(C)[C@H](NC(=O)[C@H](Cc1ccccc1)NC(=O)N(CC)c1ccccc1)C(=O)N[C@@H](CC(C)C)C(=O)OC (stereo partly specified) | – | – | inactive
Cc1cc(C)nc(NS(=O)(=O)c2ccc(N=c3c4ccccc4n(C)c4ccccc34)cc2)n1 | – | – | inactive
COC(=O)c1cc(C(=CCC(=O)O)c2cc(Cl)c(OC)c(C(=O)OC)c2)cc(Cl)c1OC | > 200 | 97.7 | –

SMILES | EC50 [µM] | IC50 [µM] | outcome
COC(=O)C1=C(O)C(O)=C(C(=O)OC)CC1 | 468 | 912 | –
Cc1c(C)c2c(c(N)c1C#N)C(=O)N(Cc1ccc(S(N)(=O)=O)cc1)C2=O | 69.2 | > 200 | –
Oc1ccc(C=NCC2CCCN3CCCCC23)cc1 (stereo unspecified) | > 200 | 33.1 | –
CC1=C(C(=O)NCCCN(CCO)CCO)CC(C(=O)NCCCN(CCO)CCO)=C(C)N1 | > 200 | 112 | –
COc1cc(C(=O)N/N=C/N(C)C)cc(OC)c1OC | > 200 | > 200 | –
O=c1[nH]c(=O)n(C2CC(O)C(CO)O2)cc1NN=NCc1ccccc1 (stereo unspecified) | > 200 | > 200 | –
Cn1cc(NC(=O)Nc2cc(C(=O)Nc3cc(C(=O)Nc4ccc(S(=O)(=O)O)c5cc(S(=O)(=O)O)cc(S(=O)(=O)O)c45)n(C)c3)n(C)c2)cc1C(=O)Nc1cc(C(=O)Nc2ccc(S(=O)(=O)O)c3cc(S(=O)(=O)O)cc(S(=O)(=O)O)c23)n(C)c1 | – | – | active
Clc1ccccc1C(SCc1ccccc1)SCc1ccccc1 | > 200 | 195 | –
O=CCC(O)C(O)C(O)CO (stereo unspecified) | > 759 | > 759 | –
COC(=O)c1c(C)cc2c(c1O)C1(O)C(=O)c3cc4c(c(O)c3C(=O)C1(OC)C(O)C2)C(=O)C=C(NC1OC(C)C(OC)C(O)C1OC)C4=O (stereo unspecified) | – | – | inactive
COc1ccc(NC(=O)C(=O)C2CNC(=O)NC2=O)c(OC)c1 (stereo unspecified) | > 209 | > 209 | –
COC1(O)C(=O)c2ccccc2OC1(OC)c1ccccc1 (stereo unspecified) | > 200 | 112 | –
COc1c(Br)cc(Br)c(OC)c1-c1ccc[nH]1 | > 38 | > 38 | –
CCC1(O)CC(CCN(Cc2ccccc2)C(=O)OCc2ccccc2)C(OCc2ccccc2)C1O (stereo unspecified) | > 200 | 9.12 | –
C1CCC(OCc2nnn3c2CCC3)OC1 (stereo unspecified) | – | – | inactive
C=CCN1CCC(OC(=O)C(O)(/C=C\CC)C2CCCC2)CC1 (stereo unspecified) | > 200 | > 200 | –
CCCCOP(C)(=O)C(NC(=O)OCC)(C(F)(F)F)C(F)(F)F (stereo unspecified) | > 200 | > 200 | –
C=CCNC(=O)N1CC(C)C(=O)Nc2ccccc21 (stereo unspecified) | > 200 | > 200 | –
O=C1C(=O)N(c2nccs2)C(=O)C(=O)C1c1nc2ccccc2s1 | > 100 | > 100 | –
CC1CN=C(N(C(=O)Nc2ccc(F)c(Cl)c2)c2ccccc2)S1 (stereo unspecified) | – | – | inactive
CC(CC(=O)c1ccccc1)C(Sc1ccccc1)(Sc1ccccc1)Sc1ccccc1 (stereo unspecified) | > 200 | > 100 | –
O=[N+]([O-])c1cc(-c2ccc([As](=O)(O)O)cc2)ccc1[As](=O)(O)O | > 200 | > 200 | –
